In article PMC3461280 (Bioorganic & medicinal chemistry letters, 2012):

How the values were obtained:
[1] = cited from earlier work
[2] = rat; cited from earlier work
[3] = cited from earlier work; remark: listed apart in the source
[4] = system: P450 isoforms; conditions: cited from earlier work
[5] = cited from earlier work; remark: listed apart in the source
[6] = system: hERG potassium channel; conditions: cited from earlier work
[7] = target: human D3 receptor (Homo sapiens, UniProt P35462); format: cell-based; conditions: D3 functional mitogenesis assay
Chain of human D3 receptor (P35462 whole entry): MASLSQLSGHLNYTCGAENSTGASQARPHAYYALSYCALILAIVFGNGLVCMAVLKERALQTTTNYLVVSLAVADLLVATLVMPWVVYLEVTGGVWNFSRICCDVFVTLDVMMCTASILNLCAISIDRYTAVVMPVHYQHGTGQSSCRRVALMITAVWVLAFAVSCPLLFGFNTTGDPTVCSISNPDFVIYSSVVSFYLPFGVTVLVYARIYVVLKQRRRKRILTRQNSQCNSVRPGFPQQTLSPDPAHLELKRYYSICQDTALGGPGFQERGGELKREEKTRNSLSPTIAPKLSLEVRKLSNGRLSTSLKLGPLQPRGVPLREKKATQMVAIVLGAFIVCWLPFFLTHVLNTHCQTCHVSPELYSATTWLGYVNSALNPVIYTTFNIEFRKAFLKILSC

functional activity at the D3 receptor [7]	Structure (SMILES)	aqueous solubility [1]	CNS penetration [3]	other results
–	CCCN(CC[C@H]1CC[C@H](NC(=O)c2ccc3ccccc3c2)CC1)[C@H]1CCc2nc(N)sc2C1 [Compound 11]	excellent	–	–
–	Cc1nc(-c2cccc(C(=O)N[C@H]3CC[C@H](CCN4CCc5ccc(S(C)(=O)=O)cc5CC4)CC3)c2)no1 [SB-414796]	–	good	bioavailability [2]: excellent
–	Cc1ncoc1-c1nnc(SCCCN2CC3CC3(c3ccc(C(F)(F)F)cc3F)C2)n1C (stereo not shown) [Compound 3]	–	good	inhibition on all the P450 isoforms [4]: weak inhibition; oral bioavailability [5]: excellent; inhibition at the hERG channel [6]: weak inhibition
full agonists	CCCN(CC[C@H]1CC[C@H](NS(=O)(=O)c2cccnc2Cl)CC1)[C@H]1CCc2nc(N)sc2C1 [Compound 52]	–	–	–
–	CCCN(CC[C@H]1CC[C@H](NC(=O)/C=C/c2ccccc2)CC1)[C@H]1CCc2nc(N)sc2C1 [Compound 10]	excellent	–	–
full agonists	CCCN(CC[C@H]1CC[C@H](NC(=O)c2cccc(-c3noc(C)n3)c2)CC1)[C@H]1CCc2nc(N)sc2C1 [Compound 38]	–	–	–
